Test results: paper PMC10855526 (2024)

Key:
[1] = system: A20:T20 duplex DNA (dA20:dT20) (DNA, duplex) AAAAAAAAAAAAAAAAAAAA/TTTTTTTTTTTTTTTTTTTT; test: UV thermal melting at 260 nm; details: 20 mM NaCl; 10 mM HEPES pH 7.5; 200 µM chloroquine; 4 µM duplex; fitted saturating ΔTm 16 ± 2 °C
[2] = system: A20:T20 duplex DNA (dA20:dT20) (DNA, duplex) AAAAAAAAAAAAAAAAAAAA/TTTTTTTTTTTTTTTTTTTT; test: isothermal titration calorimetry; details: 20 mM NaCl (30 mM Na+ in Table 1); 10 mM Na phosphate pH 7.5; 25 °C; 10 µM DNA; N constrained to 4; binding site size 5 bp
[3] = system: A20:T20 duplex DNA (dA20:dT20) (DNA, duplex) AAAAAAAAAAAAAAAAAAAA/TTTTTTTTTTTTTTTTTTTT; test: UV thermal melting, ΔTm binding isotherm fit; details: 20 mM NaCl; 10 mM HEPES pH 7.5; 4 µM duplex; chloroquine diphosphate; from ΔTm vs concentration

Tm increase [1]: ~ 10 °C | KD [2]: 360 ± 20 µM | KD [3]: 90 ± 10 µM
SMILES: CCN(CC)CCCC(C)Nc1ccnc2cc(Cl)ccc12 (stereo not drawn)
